Assay results published in patent US11945822B2, “Pyrazolo-triazine and/or pyrazolo-pxrimidine derivatives as selective inhibitor of cyclin dependent kinase” (QURIENT CO., LTD., priority 2018, dated 2024).

Molecular target: T1, CDK1/Cyclin B (Homo sapiens, UniProt P06493)
T1 construct: purchased Invitrogen PR4768C
Test: Enzymatic assay for CDK1 (FRET based LANCE Ultra kinase assay)
Format: biochemical
Conditions: read-out: CDK1 enzymatic activity (IC50 range)
How it was run: (§1)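 LANCE Ultra TR-FRET: ULight-MBP peptide (68 nM) with ATP at Km, […], 60 min at 23° C. EDTA plus Eu-anti-phospho-MBP added, another 60 min, then 665/615 nm emission read. Compounds tested as 8-dose 4-fold DMSO dilutions.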

T1 sequence (P06493 whole entry): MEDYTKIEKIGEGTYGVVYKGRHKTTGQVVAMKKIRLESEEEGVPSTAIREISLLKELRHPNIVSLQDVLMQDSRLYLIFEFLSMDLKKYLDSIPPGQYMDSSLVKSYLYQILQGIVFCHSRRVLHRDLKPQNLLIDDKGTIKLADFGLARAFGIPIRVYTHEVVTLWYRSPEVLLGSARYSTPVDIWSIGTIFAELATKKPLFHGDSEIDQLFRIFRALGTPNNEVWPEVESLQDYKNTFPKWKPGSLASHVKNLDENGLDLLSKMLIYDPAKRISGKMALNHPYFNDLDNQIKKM
T1 sequence (P14635 whole entry partner): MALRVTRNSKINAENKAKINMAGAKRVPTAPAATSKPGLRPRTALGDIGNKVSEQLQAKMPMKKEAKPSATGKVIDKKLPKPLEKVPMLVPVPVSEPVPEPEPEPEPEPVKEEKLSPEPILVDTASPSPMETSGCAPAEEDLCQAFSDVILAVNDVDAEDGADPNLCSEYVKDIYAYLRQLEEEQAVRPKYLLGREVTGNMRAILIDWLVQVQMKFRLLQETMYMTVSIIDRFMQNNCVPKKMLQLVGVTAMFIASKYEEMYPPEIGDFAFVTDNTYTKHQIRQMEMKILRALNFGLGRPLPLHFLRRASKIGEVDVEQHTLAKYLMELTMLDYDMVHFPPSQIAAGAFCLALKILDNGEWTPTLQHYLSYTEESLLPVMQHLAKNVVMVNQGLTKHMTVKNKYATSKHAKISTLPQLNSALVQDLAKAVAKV

Row | IC50 [nM] | Structure (SMILES)
1 | > 1000 | CC(C)c1cnn2c(NCc3c(Cl)cccc3-n3ccc(CO)n3)nc(N3CCC(N)CC3)nc12 [Compound 207]
2 | 100 to 1000 | CCC(=O)Nc1cccc(Oc2cccc(CNc3nc(N4CCC(N)CC4)nc4c(C(C)C)cnn34)c2)c1 [Compound 86]

Molecular target: T2, CDK2/Cyclin A (Homo sapiens, UniProt P24941)
T2 construct: purchased Invitrogen PV6290
Test: Enzymatic assay for CDK2 (FRET based LANCE Ultra kinase assay)
Format: biochemical
Conditions: read-out: CDK2 enzymatic activity (IC50 range)
How it was run: as §1

Row | IC50 [nM] | Structure (SMILES)
3 | > 1000 | CC(C)c1cnn2c(NCc3c(Cl)cccc3-n3ccc(CO)n3)nc(N3CCC(N)CC3)nc12 [Compound 207]
4 | 100 to 1000 | CCC(=O)Nc1cccc(Oc2cccc(CNc3nc(N4CCC(N)CC4)nc4c(C(C)C)cnn34)c2)c1 [Compound 86]

Molecular target: T3, CDK5/p25 (Homo sapiens, UniProt Q00535)
T3 construct: purchased Invitrogen PR8543B
Test: Enzymatic assay for CDK5 (FRET based LANCE Ultra kinase assay)
Format: biochemical
Conditions: read-out: CDK5 enzymatic activity (IC50 range)
How it was run: as §1

T3 sequence (Q00535 whole entry): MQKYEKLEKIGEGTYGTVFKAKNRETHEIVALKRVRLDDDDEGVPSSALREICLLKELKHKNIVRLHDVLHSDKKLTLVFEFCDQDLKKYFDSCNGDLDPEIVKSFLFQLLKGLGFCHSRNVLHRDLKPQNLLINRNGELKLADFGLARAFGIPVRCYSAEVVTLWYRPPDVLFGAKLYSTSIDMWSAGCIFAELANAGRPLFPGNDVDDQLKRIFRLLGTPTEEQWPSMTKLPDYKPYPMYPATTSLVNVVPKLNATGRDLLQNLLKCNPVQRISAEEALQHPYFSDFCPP
T3 sequence (Q15078 99-307 partner limits assumed): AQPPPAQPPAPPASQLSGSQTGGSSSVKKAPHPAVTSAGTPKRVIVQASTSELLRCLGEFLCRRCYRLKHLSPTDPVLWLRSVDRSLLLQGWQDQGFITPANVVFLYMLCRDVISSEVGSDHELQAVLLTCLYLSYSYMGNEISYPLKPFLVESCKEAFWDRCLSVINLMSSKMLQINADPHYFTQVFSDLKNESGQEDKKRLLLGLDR

Row | IC50 [nM] | Structure (SMILES)
5 | 100 to 1000 | CC(C)c1cnn2c(NCc3c(Cl)cccc3-n3ccc(CO)n3)nc(N3CCC(N)CC3)nc12 [Compound 207]
6 | < 100 | CCC(=O)Nc1cccc(Oc2cccc(CNc3nc(N4CCC(N)CC4)nc4c(C(C)C)cnn34)c2)c1 [Compound 86]

Molecular target: T4, CDK7/Cyclin H/MNAT1 (Homo sapiens, UniProt P50613)
T4 construct: purchased Invitrogen PR6749B
Test: Enzymatic assay for CDK7 (FRET based LANCE Ultra kinase assay)
Format: biochemical
Conditions: CDK7 over CDK1
How it was run: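 LANCE Ultra TR-FRET kinase assay using a ULight-labeled peptide substrate and a Eu-labeled anti-phospho antibody, with ATP at its Km. Purified CDK/cyclin complex was added to compound after brief centrifugation.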

T4 sequence (P50613 whole entry): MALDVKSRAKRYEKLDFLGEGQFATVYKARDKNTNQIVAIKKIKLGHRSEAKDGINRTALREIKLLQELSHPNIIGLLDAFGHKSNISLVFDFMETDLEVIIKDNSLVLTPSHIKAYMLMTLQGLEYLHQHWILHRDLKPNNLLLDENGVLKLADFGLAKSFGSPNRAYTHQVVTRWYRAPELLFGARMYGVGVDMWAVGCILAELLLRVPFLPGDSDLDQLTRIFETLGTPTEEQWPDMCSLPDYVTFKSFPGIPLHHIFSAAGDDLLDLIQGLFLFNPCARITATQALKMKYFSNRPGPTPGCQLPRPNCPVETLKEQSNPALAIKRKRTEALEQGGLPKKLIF
T4 sequence (P51946 whole entry partner): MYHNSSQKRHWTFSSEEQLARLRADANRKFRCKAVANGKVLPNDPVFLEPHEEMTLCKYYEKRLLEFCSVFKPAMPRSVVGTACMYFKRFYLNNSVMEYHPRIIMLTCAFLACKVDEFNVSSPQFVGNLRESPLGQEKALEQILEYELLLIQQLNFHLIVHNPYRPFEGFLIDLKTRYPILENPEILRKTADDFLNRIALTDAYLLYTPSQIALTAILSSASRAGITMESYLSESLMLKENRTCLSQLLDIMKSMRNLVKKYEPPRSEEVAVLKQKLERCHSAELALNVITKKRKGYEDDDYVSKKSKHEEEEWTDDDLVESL
T4 sequence (P51948 whole entry partner): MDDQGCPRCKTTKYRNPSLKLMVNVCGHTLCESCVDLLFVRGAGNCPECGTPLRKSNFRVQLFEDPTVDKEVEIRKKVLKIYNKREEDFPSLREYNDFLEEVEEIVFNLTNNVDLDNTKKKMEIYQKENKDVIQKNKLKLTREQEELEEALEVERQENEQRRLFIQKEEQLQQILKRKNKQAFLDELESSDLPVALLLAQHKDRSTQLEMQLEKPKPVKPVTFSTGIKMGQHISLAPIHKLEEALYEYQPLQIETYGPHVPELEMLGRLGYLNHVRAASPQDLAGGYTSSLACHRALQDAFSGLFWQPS

Row | Structure (SMILES) | CDK1/CDK7: Selectivity of CDK7 inhibition over CDK1 inhibition
7 | CC(C)c1cnn2c(NCc3c(Cl)cccc3-n3ccc(CO)n3)nc(N3CCC(N)CC3)nc12 [Compound 207] | A (A=greater than 200 fold)
8 | CCC(=O)Nc1cccc(Oc2cccc(CNc3nc(N4CCC(N)CC4)nc4c(C(C)C)cnn34)c2)c1 [Compound 86] | B (B=less than 200 fold, but greater than 20 fold)

Same assay, conditions: CDK7 over CDK2

Row | Structure (SMILES) | CDK2/CDK7: Selectivity of CDK7 inhibition over CDK2 inhibition
9 | CC(C)c1cnn2c(NCc3c(Cl)cccc3-n3ccc(CO)n3)nc(N3CCC(N)CC3)nc12 [Compound 207] | A (A=greater than 200 fold)
10 | CCC(=O)Nc1cccc(Oc2cccc(CNc3nc(N4CCC(N)CC4)nc4c(C(C)C)cnn34)c2)c1 [Compound 86] | B (B=less than 200 fold, but greater than 20 fold)

Same assay, conditions: CDK7 over CDK5

Row | Structure (SMILES) | CDK5/CDK7: Selectivity of CDK7 inhibition over CDK5 inhibition
11 | CC(C)c1cnn2c(NCc3c(Cl)cccc3-n3ccc(CO)n3)nc(N3CCC(N)CC3)nc12 [Compound 207] | B (B=less than 200 fold, but greater than 20 fold)
12 | CCC(=O)Nc1cccc(Oc2cccc(CNc3nc(N4CCC(N)CC4)nc4c(C(C)C)cnn34)c2)c1 [Compound 86] | C (C=less than 20 fold)

Same assay, conditions: read-out: CDK7 enzymatic activity (IC50 range)

Row | IC50 [nM] | Structure (SMILES)
13 | < 100 | CC(C)c1cnn2c(NCc3c(Cl)cccc3-n3ccc(CO)n3)nc(N3CCC(N)CC3)nc12 [Compound 207]
14 | < 100 | CCC(=O)Nc1cccc(Oc2cccc(CNc3nc(N4CCC(N)CC4)nc4c(C(C)C)cnn34)c2)c1 [Compound 86]

System: HCT116
Test: Cellular HCT116 viability assay (CellTiter-Glo, 72 hours)
Format: cell-based
Conditions: Homo sapiens, HCT-116
How it was run: (§2)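 Steps: seed cells at per-line density; add compound, DMSO vehicle kept under 0.1% final; incubate 72 h, 37 °C, 5% CO2; lyse with CellTiter-Glo and read luminescence; run in duplicate.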

Row | IC50 [nM] | Structure (SMILES)
15 | < 1000 | CC(C)c1cnn2c(NCc3c(Cl)cccc3-n3ccc(CO)n3)nc(N3CCC(N)CC3)nc12 [Compound 207]

System: H460
Test: Cellular H460 viability assay (CellTiter-Glo, 72 hours)
Format: cell-based
Conditions: Homo sapiens, NCI-H460
How it was run: as §2

Row | IC50 [nM] | Structure (SMILES)
16 | < 1000 | CC(C)c1cnn2c(NCc3ccncc3-n3cccn3)nc(N3CCC(N)CC3)nc12 [Compound 6]
17 | 1000 to 10000 | CC(C)c1cnn2c(NCc3ncccc3-n3cccn3)nc(N3CCC(N)CC3)nc12 [Compound 5]
18 | < 1000 | CC(C)c1cnn2c(NCc3ccccc3-n3ccc4ccccc43)nc(N3CCC(N)CC3)nc12 [Compound 68]
19 | < 1000 | CC(C)c1cnn2c(NCc3ccccc3-c3ccco3)nc(N3CCC(N)CC3)nc12 [Compound 45]
20 | < 1000 | CN(C)c1cnn2c(NCc3ccccc3-n3cccn3)nc(N3CCC(N)CC3)nc12 [Compound 60]
21 | < 1000 | CC(C)c1cnn2c(NCc3c(Cl)cccc3-n3ccc(CO)n3)nc(N3CCC(N)CC3)nc12 [Compound 207]

System: MV4-11
Test: Cellular MV4-11 viability assay (CellTiter-Glo, 72 hours)
Format: cell-based
Conditions: Homo sapiens
How it was run: as §2

Row | IC50 [nM] | Structure (SMILES)
22 | < 1000 | CC(C)c1cnn2c(NCc3c(Cl)cccc3-n3ccc(CO)n3)nc(N3CCC(N)CC3)nc12 [Compound 207]

System: MOLT-4
Test: Cellular MOLT-4 viability assay (CellTiter-Glo, 72 hours)
Format: cell-based
Conditions: Homo sapiens, MOLT4 viability assay
Protocol: All cell lines were routinely tested for mycoplasma.
The effect of the CDK7 inhibitor to inhibit the growth of target cancer cells was evaluated through the 72 hours time period of viability assay. Briefly, the candidate cell line ware plated in 96 well plate at the following density of cells respectively. […] DMSO solvent without compound served as a control and final DMSO concentration less than 0.1%. After 72 hours of incubation at 37° C., 5% CO2 incubator, cells were analyzed for the viability using the CellTiter-Glo Luminescent Cell Viability Assay (Promega, Cat #G7570). All viability assays were performed in duplicate and Luminescence was read using an Envision (Perkin Elmer, USA). Data was analyzed using XLfit software.

Row | Structure (SMILES) | IC50 [nM]
23 | CC(C)c1cnn2c(NCc3ccncc3-n3cccn3)nc(N3CCC(N)CC3)nc12 [Compound 6] | > 10000
24 | CC(C)c1cnn2c(NCc3ncccc3-n3cccn3)nc(N3CCC(N)CC3)nc12 [Compound 5] | > 10000
25 | CC(C)c1cnn2c(NCc3ccccc3-n3ccc4ccccc43)nc(N3CCC(N)CC3)nc12 [Compound 68] | 1000 to 10000
26 | CC(C)c1cnn2c(NCc3ccccc3Oc3cccc(NC(=O)CCCN(C)C)c3)nc(N3CCC(N)CC3)nc12 [Compound 82] | 1000 to 10000
27 | CC(C)c1cnn2c(NCc3ccccc3-c3ccco3)nc(N3CCC(N)CC3)nc12 [Compound 45] | 1000 to 10000
28 | CN(C)c1cnn2c(NCc3ccccc3-n3cccn3)nc(N3CCC(N)CC3)nc12 [Compound 60] | > 10000
29 | CC(C)c1cnn2c(NCc3cccc(Oc4cccc(NC(=O)CCCN(C)C)c4)c3)nc(N3CCC(N)CC3)nc12 [Compound 84] | 1000 to 10000
30 | NC1CCN(c2nc(NCc3ccccc3-n3cccn3)n3ncc(F)c3n2)CC1 [Compound 37] | > 10000

Continued, values first:

Row | IC50 [nM] | Structure (SMILES)
31 | > 10000 | CC(C)c1cnn2c(NCc3cccc(N4CCN(C(=O)CCCN(C)C)CC4)c3)nc(N3CCC(N)CC3)nc12 [Compound 85]
32 | > 10000 | CC(C)c1cnn2c(NCc3ccccc3-n3cccn3)nc(Oc3ccc(N4CCCC4)cc3)nc12 [Compound 162]
33 | 1000 to 10000 | CCC(=O)Nc1cccc(Oc2cccc(CNc3nc(N4CCC(N)CC4)nc4c(C(C)C)cnn34)c2)c1 [Compound 86]
